{
  "source": "patent US6914045B2",
  "about": "“Glycopeptide antibiotics” (Wyeth Holdings Corporation, priority 2001, dated 2005)",
  "test_in_all_cases": "in vitro antibacterial evaluation, MIC by broth dilution",
  "assay_type_in_all_cases": "cell-based",
  "key": {"Escherichia coli": {"system": "Escherichia coli", "settings": "18 hours at 35° C."}, "Enterococcus sp.": {"system": "Enterococcus sp.", "settings": "broth dilution, 18 hours at 35° C.", "summary_of_the_method": "(§1)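 Broth dilution per NCCLS M7-A2 in Mueller-Hinton II medium, inoculum 5×10^5 CFU/mL, antibiotic range 64-0.06 μg/mL. MIC taken as lowest concentration inhibiting growth; Gram-positive panel includes recent clinical isolates resistant to methicillin, penicillin and/or vancomycin.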"}, "Streptococcus sp.": {"system": "Streptococcus sp.", "settings": "broth dilution, 18 hours at 35° C.", "summary_of_the_method": "as §1"}, "Staphylococcus sp.": {"system": "Staphylococcus sp.", "settings": "broth dilution, 18 hours at 35° C.; for MIC Staphylococcus aureus (GC 1131): strain GC 1131", "summary_of_the_method": "as §1"}},
  "data": [
    {"smiles": "CC(c1ccccc1)C1NC(=O)CNC(=O)C(CO)NC(=O)C(C(O)C2CNC(=N)N2C2OC(CO)C(O)C(O)C2O)NC(=O)C(C(O)C2CNC(=N)N2)NC(=O)C(Cc2ccc(OC3OC(CO)C(OC4OC5COC6(CCCCC6(C)C)OC5C(O)C4O)C(O)C3O)cc2)NC1=O", "note": "(stereo not shown) [Example 205]", "values": [
      {"measurement": "MIC Escherichia coli (ATCC 25922)", "setting": "Escherichia coli", "result": 64, "unit": "µg/mL"},
      {"measurement": "MIC Escherichia coli (GC 4559)", "setting": "Escherichia coli", "result": 128, "unit": "µg/mL"},
      {"measurement": "MIC Escherichia coli (GC 4560)", "setting": "Escherichia coli", "result": 1, "unit": "µg/mL"},
      {"measurement": "MIC Enterococcus avium (GC 4558)", "setting": "Enterococcus sp.", "result": 4, "unit": "µg/mL"},
      {"measurement": "MIC Enterococcus faecalis (ATCC 29212)", "setting": "Enterococcus sp.", "result": 2, "unit": "µg/mL"},
      {"measurement": "MIC Enterococcus faecalis (GC 2242)", "setting": "Enterococcus sp.", "result": 4, "unit": "µg/mL"},
      {"measurement": "MIC Enterococcus faecalis (GC 2691)", "setting": "Enterococcus sp.", "result": 4, "unit": "µg/mL"},
      {"measurement": "MIC Enterococcus faecalis (GC 3059)", "setting": "Enterococcus sp.", "result": 2, "unit": "µg/mL"},
      {"measurement": "MIC Enterococcus faecalis (GC 4552)", "setting": "Enterococcus sp.", "result": 4, "unit": "µg/mL"},
      {"measurement": "MIC Enterococcus faecalis (GC 4553)", "setting": "Enterococcus sp.", "result": 2, "unit": "µg/mL"},
      {"measurement": "MIC Enterococcus faecalis (GC 4554)", "setting": "Enterococcus sp.", "result": 4, "unit": "µg/mL"},
      {"measurement": "MIC Enterococcus faecalis (GC 6189)", "setting": "Enterococcus sp.", "result": 2, "unit": "µg/mL"},
      {"measurement": "MIC Enterococcus faecium (GC 2243)", "setting": "Enterococcus sp.", "result": 2, "unit": "µg/mL"},
      {"measurement": "MIC Enterococcus faecium (GC 4556)", "setting": "Enterococcus sp.", "result": 2, "unit": "µg/mL"},
      {"measurement": "MIC Enterococcus faecium (GC 4557)", "setting": "Enterococcus sp.", "result": 4, "unit": "µg/mL"},
      {"measurement": "MIC Enterococcus faecalis (ATCC 29212)", "setting": "Enterococcus sp.; inoculum 5×10^5 CFU/mL, strain ATCC 29212", "result": 2, "unit": "µg/mL"},
      {"measurement": "MIC Enterococcus faecalis (GC 2242)", "setting": "Enterococcus sp.; inoculum 5×10^5 CFU/mL, strain GC 2242", "result": 4, "unit": "µg/mL"},
      {"measurement": "MIC Enterococcus faecium (GC 2243)", "setting": "Enterococcus sp.; inoculum 5×10^5 CFU/mL, strain GC 2243", "result": 2, "unit": "µg/mL"},
      {"measurement": "MIC Enterococcus faecalis (GC 2691)", "setting": "Enterococcus sp.; inoculum 5×10^5 CFU/mL, strain GC 2691", "result": 4, "unit": "µg/mL"},
      {"measurement": "MIC Enterococcus faecalis (GC 3059)", "setting": "Enterococcus sp.; inoculum 5×10^5 CFU/mL, strain GC 3059", "result": 2, "unit": "µg/mL"},
      {"measurement": "MIC Enterococcus faecalis (GC 4552)", "setting": "Enterococcus sp.; inoculum 5×10^5 CFU/mL, strain GC 4552", "result": 4, "unit": "µg/mL"},
      {"measurement": "MIC Enterococcus faecalis (GC 4553)", "setting": "Enterococcus sp.; inoculum 5×10^5 CFU/mL, strain GC 4553", "result": 2, "unit": "µg/mL"},
      {"measurement": "MIC Enterococcus faecalis (GC 4554)", "setting": "Enterococcus sp.; inoculum 5×10^5 CFU/mL, strain GC 4554", "result": 4, "unit": "µg/mL"},
      {"measurement": "MIC Enterococcus faecium (GC 4556)", "setting": "Enterococcus sp.; inoculum 5×10^5 CFU/mL, strain GC 4556", "result": 2, "unit": "µg/mL"},
      {"measurement": "MIC Enterococcus faecium (GC 4557)", "setting": "Enterococcus sp.; inoculum 5×10^5 CFU/mL, strain GC 4557", "result": 4, "unit": "µg/mL"},
      {"measurement": "MIC Enterococcus avium (GC 4558)", "setting": "Enterococcus sp.; inoculum 5×10^5 CFU/mL, strain GC 4558", "result": 4, "unit": "µg/mL"},
      {"measurement": "MIC Enterococcus faecalis (GC 6189)", "setting": "Enterococcus sp.; inoculum 5×10^5 CFU/mL, strain GC 6189", "result": 2, "unit": "µg/mL"},
      {"measurement": "MIC Streptococcus agalactiae (GC 4564)", "setting": "Streptococcus sp.", "result": "<0.12", "unit": "µg/mL"},
      {"measurement": "MIC Streptococcus pneumoniae (ATCC 6301)", "setting": "Streptococcus sp.", "result": "<0.12", "unit": "µg/mL"},
      {"measurement": "MIC Streptococcus pneumoniae (GC 1894)", "setting": "Streptococcus sp.", "result": "<0.12", "unit": "µg/mL"},
      {"measurement": "MIC Streptococcus pneumoniae (GC 4565)", "setting": "Streptococcus sp.", "result": "<0.12", "unit": "µg/mL"},
      {"measurement": "MIC Streptococcus pyogenes (GC 4563)", "setting": "Streptococcus sp.", "result": "<0.12", "unit": "µg/mL"},
      {"measurement": "MIC Streptococcus pneumoniae (ATCC 6301)", "setting": "Streptococcus sp.; inoculum 5×10^5 CFU/mL, strain ATCC 6301", "result": "<0.12", "unit": "µg/mL"},
      {"measurement": "MIC Streptococcus pneumoniae (GC 1894)", "setting": "Streptococcus sp.; inoculum 5×10^5 CFU/mL, strain GC 1894", "result": "<0.12", "unit": "µg/mL"},
      {"measurement": "MIC Streptococcus pyogenes (GC 4563)", "setting": "Streptococcus sp.; inoculum 5×10^5 CFU/mL, strain GC 4563", "result": "<0.12", "unit": "µg/mL"},
      {"measurement": "MIC Streptococcus agalactiae (GC 4564)", "setting": "Streptococcus sp.; inoculum 5×10^5 CFU/mL, strain GC 4564", "result": "<0.12", "unit": "µg/mL"},
      {"measurement": "MIC Streptococcus pneumoniae (GC 4565)", "setting": "Streptococcus sp.; inoculum 5×10^5 CFU/mL, strain GC 4565", "result": "<0.12", "unit": "µg/mL"},
      {"measurement": "MIC Staphylococcus aureus (GC 1131)", "setting": "Staphylococcus sp.; inoculum 5×10^5 CFU/mL", "result": 2, "unit": "µg/mL"},
      {"measurement": "MIC Staphylococcus aureus (ATCC 29213)", "setting": "Staphylococcus sp.; strain ATCC 29213", "result": 2, "unit": "µg/mL"},
      {"measurement": "MIC Staphylococcus aureus (GC 1131)", "setting": "Staphylococcus sp.", "result": 2, "unit": "µg/mL"},
      {"measurement": "MIC Staphylococcus aureus (GC 3051)", "setting": "Staphylococcus sp.; strain GC 3051", "result": 2, "unit": "µg/mL"},
      {"measurement": "MIC Staphylococcus aureus (GC 3053)", "setting": "Staphylococcus sp.; strain GC 3053", "result": 2, "unit": "µg/mL"},
      {"measurement": "MIC Staphylococcus aureus (GC 4541)", "setting": "Staphylococcus sp.; strain GC 4541", "result": 2, "unit": "µg/mL"},
      {"measurement": "MIC Staphylococcus aureus (GC 4542)", "setting": "Staphylococcus sp.; strain GC 4542", "result": 2, "unit": "µg/mL"},
      {"measurement": "MIC Staphylococcus aureus-SMITH (GC 4543)", "setting": "Staphylococcus sp.; strain GC 4543", "result": 2, "unit": "µg/mL"},
      {"measurement": "MIC Staphylococcus aureus (GC 4544)", "setting": "Staphylococcus sp.; strain GC 4544", "result": 2, "unit": "µg/mL"},
      {"measurement": "MIC Staphylococcus aureus (GC 4545)", "setting": "Staphylococcus sp.; strain GC 4545", "result": 2, "unit": "µg/mL"},
      {"measurement": "MIC Staphylococcus haemolyticus (GC 4546)", "setting": "Staphylococcus sp.; strain GC 4546", "result": 2, "unit": "µg/mL"},
      {"measurement": "MIC Coagulase Negative Staphylococcus (GC 4547)", "setting": "Staphylococcus sp.; strain GC 4547", "result": 2, "unit": "µg/mL"},
      {"measurement": "MIC Coagulase Negative Staphylococcus (GC 4548)", "setting": "Staphylococcus sp.; strain GC 4548", "result": 1, "unit": "µg/mL"},
      {"measurement": "MIC Coagulase Negative Staphylococcus (GC 4549)", "setting": "Staphylococcus sp.; strain GC 4549", "result": 1, "unit": "µg/mL"},
      {"measurement": "MIC Coagulase Negative Staphylococcus (GC 4551)", "setting": "Staphylococcus sp.; strain GC 4551", "result": 2, "unit": "µg/mL"}
    ]}
  ]
}
